# Values quoted from earlier work, collected in article PMC4546577 (ACS chemical biology, 2015).
# Settings: sulphydryl group in MeaF; ref [69] PerrinDD, Dissociation constants of organic bases in aqueous solution, 1965
compound,measurement,value
"N[C@@H](Cc1cccc(NCCS)c1)C(=O)O [MeaF, 3-(2-mercapto-ethyl)amino-phenylalanine]",pKa (sulphydryl group),~ 8.5
